Data: patent US20220096410A1, “PHARMACEUTICAL COMPOSITION FOR INTRAOCULAR OR ORAL ADMINISTRATION FOR TREATMENT OF RETINAL DISEASES” (FUSO PHARMACEUTICAL INDUSTRIES, LTD., priority 2019, published 2022)

Assays:
Assay type in all cases: in vivo, BALB/c mice
[1] = tested on: light irradiation model (atrophic AMD model mouse); test: Pharmacological test against AMD, light-induced AMD model mice, oral administration, ONL thickness
Experimental: A test was performed using a light irradiation model, which is widely employed as an atrophic AMD model mouse, as a test model. Male BALB/c mice (4 weeks old) were purchased from Japan SLC, Inc., and allowed to acclimate for a week before being used for experiments. Laboratory animal chow (CLEA Rodent Diet CE-2, CREA JAPAN, INC.) was used as food, and tap water was freely consumed as drinking water. The animals were raised under light and dark cycles of every 12 hours. Also all animal experiments were conducted under the approval of the Kyushu University Animal Experiment Committee. To BALB/c mice, 1 mL/kg of 50 μM compound dissolved in PBS containing 10% polyethylene glycol (PEG) 300 was orally administered. Thirty (30) minutes later, one drop of […] (5 mg/mL tropicamide, 5 mg/mL phenylephrine hydrochloride; Santen Pharmaceutical Co., Ltd.) was applied to each eye as a mydriatic drug. The mice were irradiated with 8000 lux white light for 10 hours, then returned to under normal light and dark cycles, and raised for 6 days. On day 7, the animal was euthanized by cervical dislocation, and the eyeballs were removed (FIG. 1A). Frozen sections of 8 μm thickness were prepared by using the above-mentioned removed eyeballs, and subjected to hematoxylin eosin (HE) staining, and the thickness of the outer nuclear layer (ONL) was measured over 27 points every 180 μm (observation magnification: 60 times) (FIG. 1B). The preparation was air-dried for 1 hour, fixed with acetone at room temperature for 15 minutes, then immersed in 99.5% EtOH, 80% EtOH, 70% EtOH, and purified water in this order for 3 minutes each, and stained with hematoxylin for 10 minutes. Then, it was washed with running water for 10 minutes, soaked in warm water for 1 minute, and stained with eosin for 1.5 minutes. After washing with purified water, it was immersed in 70% EtOH, 80% EtOH, and 99.5% EtOH in this order for 3 minutes each, then washed with xylene three times, dried, and then enclosed with VectaMountTM Mounting Medium. The resultant was subjected to observation and imaging with Keyence fluorescence microscope (BZ-9000). Results were expressed as mean+standard deviation. Dunnett's Test was used for multigroup comparison.

mRNA of the complement = test: Activity evaluation test of complement (real-time PCR of retina, AMD model mice); settings: oral, 1 mL/kg of 50 μM, pathological group of mice
Experimental: Specifically, to 9 week olds of BALB/c mice, 1 mL/kg of 50 μM test compounds dissolved in PBS containing 10% polyethylene glycol (PEG) 300 was orally administered. A PBS solution containing 10% polyethylene glycol (PEG) 300 was used as a control. Thirty (30) minutes later, one drop of Midrin P (5 mg/mL tropicamide, 5 mg/mL phenylephrine hydrochloride; Santen Pharmaceutical Co., Ltd.) as a mydriatic drug was applied to both eyes by one drop per one eye. The mice were irradiated with 8000 lux white light for 10 hours, then returned to under normal light and dark cycles, and raised for the desirable observation periods. After the observation periods, the animal was euthanized by cervical dislocation, and the retina were removed.
For the removed retina, RNA was extracted by using ISOSPIN Cell & Tissue RNA (manufactured by Nippon Gene Co. Ltd), and cDNA was then synthesized by using ReverTra Ace™ qPCR RT master Mix (manufactured by Toyobo Co. Ltd). The obtained cDNA was diluted with sterile water to 0.5 ng/μL, and a real-time PCR was carried out with THUNDERBIRD™ SYBR™ qPCR Mix (manufactured by Toyobo Co. Ltd). All of the test results were corrected by Gapdh mRNA amounts, and a relative quantification was carried. […]

[2] = tested on: mRNA of microglia marker protein; test: Activity evaluation test of microglia (real-time PCR of retina, AMD model mice); settings: oral, 1 mL/kg of 50 μM, pathological group of mice
[3] = tested on: mRNA of Muller cell marker protein; test: Activity evaluation test of Muller cell (real-time PCR of retina, AMD model mice); settings: oral, 1 mL/kg of 50 μM, pathological group of mice
Source text: For age-related macular degeneration (AMD), the suppression activity of the test compounds against the expression amount of mRNA of a marker protein, which is used as an indicator of activity of Muller cell and is increased as a pathology is deteriorated, was examined. The present compound as test compound was methyldopa (Compound Y).
(§1) Male BALB/c mice (4 weeks old) were purchased from Japan SLC, Inc., and allowed to acclimate for a week before being used for experiments. Laboratory animal chow (CLEA Rodent Diet CE-2, CREA JAPAN, INC.) was used as food, and tap water was freely consumed as drinking water. The animals were raised under light and dark cycles of every 12 hours. Also all animal experiments were conducted under the approval of the Kyushu University Animal Experiment Committee.
A method for producing age-related macular degeneration (AMD) model mice (production schedule) was prepared according to the method described in Test Example 2 (FIG. 3). […]
For the removed retina, RNA was extracted by using ISOSPIN Cell & Tissue RNA (manufactured by Nippon Gene Co. Ltd), and cDNA was then synthesized by using ReverTra Ace™ qPCR RT master Mix (manufactured by Toyobo Co. Ltd). […] All of the test results were corrected by Gapdh mRNA amounts, and a relative quantification was carried.

[4] = tested on: light irradiation model (atrophic AMD model mouse); test: Pharmacological test against AMD, light-induced AMD model mice, administration by eye drop, ONL thickness; settings: 50 μL per one eye
Experimental: A test was performed using a light irradiation model, which is widely employed as an atrophic AMD model mouse, as a test model.
as §1
To BALB/c mice, Midrin P (5 mg/mL tropicamide, 5 mg/mL phenylephrine hydrochloride; Santen Pharmaceutical Co., Ltd.) as a mydriatic drug was applied to both eyes by one drop per one eye, and after 10 minutes, 0.45%, 0.75% or 1% of methyldopa that was dissolved in PBS containing 10% polyethylene glycol (PEG) 300 was administered with eye drop in 50 μL of the compound per one eye. Thereafter, the mice were irradiated with 8000 lux white light for 10 hours, then returned to under normal light and dark cycles, and raised for 6 days. On day 7, the animal was euthanized by cervical dislocation, and the eyeballs were removed.
Frozen sections of 8 μm thickness were prepared by using the above-mentioned removed eyeballs, and subjected to hematoxylin eosin (HE) staining, and the thickness of the outer nuclear layer (ONL) was measured over 27 points every 180 μm (observation magnification: 40 times).
The preparation was air-dried for 1 hour, fixed with acetone at room temperature for 15 minutes, then immersed in 99.5% EtOH, 80% EtOH, 70% EtOH, and purified water in this order for 3 minutes each, and stained with hematoxylin for 10 minutes. Then, it was washed with running water for 10 minutes, soaked in warm water for 1 minute, and stained with eosin for 1.5 minutes. […] The resultant was subjected to observation and imaging with Keyence fluorescence microscope (BZ-9000).
Results were expressed as mean+standard deviation. […]

[5] = 50 μmol/kg, 8000 lux white light 10 hours, day 7

SMILES | ONL thickness compared to positive control ([1]; 100 μmol/kg) | ONL thickness compared to positive control ([1]; 200 μmol/kg) | expression amounts of mRNA in the complement (mRNA of the complement) | expression amounts of mRNA in microglia marker protein [2] | expression amounts of mRNA in Muller cell marker protein [3] | ONL thickness compared to light irradiation case ([4]; eye drop 0.45%) | ONL thickness compared to light irradiation case ([4]; eye drop 0.75%) | ONL thickness compared to light irradiation case ([4]; eye drop 1%) | ONL thickness compared to positive control [1, 5]
C[C@](N)(Cc1ccc(O)c(O)c1)C(=O)O [methyldopa, Methyldopa Sesquihydrates] | didn't have significant difference compared to that of the positive control | didn't have significant difference compared to that of the positive control | suppress significantly | suppress significantly | suppress significantly | significant thickness compared to that of the light irradiation case | significant thickness compared to that of the light irradiation case | significant thickness compared to that of the light irradiation case | 
CC1Cc2ccccc2N1NC(=O)c1ccc(Cl)c(S(N)(=O)=O)c1 (racemic) [indapamide, 4-Chloro-N-[(2RS)-2-methyl-2,3-dihydro-1H-indol-1-yl]-3-sulfamoyl Benzamide] |  |  |  |  |  |  |  |  | not different so much compared to that of the positive control
CCOc1ccc2c(c1)C(C)=CC(C)(C)N2 [ethoxyquin, 6-Ethoxy-2,2,4-trimethyl-1,2-dihydroquinoline] |  |  |  |  |  |  |  |  | not different so much compared to that of the positive control
